Test system: Metabolism protein genes
Assay: DNA chip mRNA expression in yeast, metabolism protein genes (Table 7)
Assay type: cell-based, Saccharomyces cerevisiae S288C
Description: Yeast (Saccharomyces cerevisiae S288C (α SUC2mal mel gap2 CUP1)) were incubated at 25° C. on YPD medium (yeast extract 1%, polypepton 2%, glucose 2%). One of toxic chemical substances was added to the cells at logarithmic growth phase, and the cells were further incubated for two hours. Cells were cultured without any chemical substance in the same condition, and were used as control. Concentrations of the chemical substances were defined to inhibit the growth of the yeast but not lead to death.
After completion of the incubation, the culture was centrifuged to collect the cells. To the cells, sodium acetate buffer (50 mM sodium acetate, 10 mM EDTA, 1% SDS) was added, and the mixture was shaken at 65° C. for five minutes, followed by returning to room temperature, and obtaining the supernatant, of which the procedures were repeated two times. To the supernatant, ½ amount of a solution of phenol/chloroform was added, and the mixture was centrifuged to give a supernatant, which was added with an equal amount of chloroform, and the mixture was centrifuged to give a supernatant. To the supernatant, an equal amount of isopropanol containing 0.3 M sodium acetate was added, and the mixture was allowed to stand at room temperature for 30 minutes, after which the mixture was centrifuged to give a sediment of the whole RNAs. Seventy % ethanol was added to the sediment, and the mixture was again centrifuged to give a sediment, which was then dried and dissolved in water. mRNA was isolated from the whole RNAs as followings. In view of the fact that a poly A chain is attached to the 3′ terminus of mRNA, a polynucleotide having a poly T structure which was immobilized on the surface of latex beads was used to trap the mRNA, and then the mRNA was washed and eluted with spine column (Oligotex-dT30<Super>mRNA Purification Kit, Takara). Reverse transcription of the mRNA was conducted with a reverse transcriptase (Super Script II Reverse Transcriptase; catalogue No. 18064-014, GibcoBRL) using fluorescence-labeled nucleotides to give cDNAs that were introduced with Cy3-dUTP or Cy5-dUTP during the reverse transcription.
The labeled cDNAs were dissolved in TE buffer (10mM Tris-HCl/1 mM EDTA, pH8.0), and the solution was dropped on the DNA chip containing the whole genes of yeast (DNA Chip Research Inc. Japan) so that the cDNAs were hybridized on the DNA chip at 65° C. for over 12 hours. The fluoresces intensity of the DNA chip was read with a scanner, and the ratio relative to the fluorescence intensity resulting from the absence of chemical substance was estimated as the following, which is shown in Tables 1 to 9: […]

Na2As [(1)]
1.1: The level of expressed mRNA in the presence of chemical substance/The level of expressed mRNA in the absence of chemical substance (yeast gene YLR348C) | level of expressed mRNA in the presence/in the absence of chemical substance (yeast gene YLR354C) | The level of expressed mRNA in the presence of chemical substance/The level of expressed mRNA in the absence of chemical substance (yeast gene YNL104C) | level of expressed mRNA in the presence/in the absence of chemical substance (yeast gene YNL192W) | The level of expressed mRNA in the presence of chemical substance/The level of expressed mRNA in the absence of chemical substance (yeast gene YNL332W) | The level of expressed mRNA in the presence of chemical substance/The level of expressed mRNA in the absence of chemical substance (yeast gene YNR059W) | level of expressed mRNA in the presence/in the absence of chemical substance (yeast gene YOL086C) | level of expressed mRNA in the presence/in the absence of chemical substance (yeast gene YOL116W) | level of expressed mRNA in the presence/in the absence of chemical substance (yeast gene YOL156W) | level of expressed mRNA in the presence/in the absence of chemical substance (yeast gene YOR103C) | level of expressed mRNA in the presence/in the absence of chemical substance (yeast gene YOR251C) | level of expressed mRNA in the presence/in the absence of chemical substance (yeast gene YOR348C) | level of expressed mRNA in the presence/in the absence of chemical substance (yeast gene YPR113W)
10.1: The level of expressed mRNA in the presence of chemical substance/The level of expressed mRNA in the absence of chemical substance (yeast gene YOL165C)
0.7: level of expressed mRNA in the presence/in the absence of chemical substance (yeast gene YKL157W) | level of expressed mRNA in the presence/in the absence of chemical substance (yeast gene YLR006C) | level of expressed mRNA in the presence/in the absence of chemical substance (yeast gene YLR304C) | level of expressed mRNA in the presence/in the absence of chemical substance (yeast gene YLR372W) | The level of expressed mRNA in the presence of chemical substance/The level of expressed mRNA in the absence of chemical substance (yeast gene YMR008C) | level of expressed mRNA in the presence/in the absence of chemical substance (yeast gene YMR015C) | The level of expressed mRNA in the presence of chemical substance/The level of expressed mRNA in the absence of chemical substance (yeast gene YMR189W) | level of expressed mRNA in the presence/in the absence of chemical substance (yeast gene YMR261C) | The level of expressed mRNA in the presence of chemical substance/The level of expressed mRNA in the absence of chemical substance (yeast gene YNL169C) | level of expressed mRNA in the presence/in the absence of chemical substance (yeast gene YOR085W) | level of expressed mRNA in the presence/in the absence of chemical substance (yeast gene YOR176W) | The level of expressed mRNA in the presence of chemical substance/The level of expressed mRNA in the absence of chemical substance (yeast gene YOR336W) | level of expressed mRNA in the presence/in the absence of chemical substance (yeast gene YPL028W)
1.9: The level of expressed mRNA in the presence of chemical substance/The level of expressed mRNA in the absence of chemical substance (yeast gene YMR105C) | level of expressed mRNA in the presence/in the absence of chemical substance (yeast gene YPL057C)
0.9: level of expressed mRNA in the presence/in the absence of chemical substance (yeast gene YKL148C) | The level of expressed mRNA in the presence of chemical substance/The level of expressed mRNA in the absence of chemical substance (yeast gene YKL213C) | level of expressed mRNA in the presence/in the absence of chemical substance (yeast gene YKR034W) | level of expressed mRNA in the presence/in the absence of chemical substance (yeast gene YLR058C) | level of expressed mRNA in the presence/in the absence of chemical substance (yeast gene YLR089C) | level of expressed mRNA in the presence/in the absence of chemical substance (yeast gene YLR284C) | The level of expressed mRNA in the presence of chemical substance/The level of expressed mRNA in the absence of chemical substance (yeast gene YLR300W) | The level of expressed mRNA in the presence of chemical substance/The level of expressed mRNA in the absence of chemical substance (yeast gene YLR307W) | level of expressed mRNA in the presence/in the absence of chemical substance (yeast gene YML022W) | The level of expressed mRNA in the presence of chemical substance/The level of expressed mRNA in the absence of chemical substance (yeast gene YML070W) | level of expressed mRNA in the presence/in the absence of chemical substance (yeast gene YNL025C) | level of expressed mRNA in the presence/in the absence of chemical substance (yeast gene YOR128C) | The level of expressed mRNA in the presence of chemical substance/The level of expressed mRNA in the absence of chemical substance (yeast gene YOR347C) | level of expressed mRNA in the presence/in the absence of chemical substance (yeast gene YPL135W) | The level of expressed mRNA in the presence of chemical substance/The level of expressed mRNA in the absence of chemical substance (yeast gene YPR026W) | level of expressed mRNA in the presence/in the absence of chemical substance (yeast gene YPR183W)
10.6: The level of expressed mRNA in the presence of chemical substance/The level of expressed mRNA in the absence of chemical substance (yeast gene YJR155W)
1.4: The level of expressed mRNA in the presence of chemical substance/The level of expressed mRNA in the absence of chemical substance (yeast gene YLR273C) | level of expressed mRNA in the presence/in the absence of chemical substance (yeast gene YMR083W) | level of expressed mRNA in the presence/in the absence of chemical substance (yeast gene YOL108C) | level of expressed mRNA in the presence/in the absence of chemical substance (yeast gene YOR178C)
1.6: level of expressed mRNA in the presence/in the absence of chemical substance (yeast gene YKL060C) | The level of expressed mRNA in the presence of chemical substance/The level of expressed mRNA in the absence of chemical substance (yeast gene YMR271C)
0.5: level of expressed mRNA in the presence/in the absence of chemical substance (yeast gene YMR205C)
0.8: level of expressed mRNA in the presence/in the absence of chemical substance (yeast gene YLR044C) | The level of expressed mRNA in the presence of chemical substance/The level of expressed mRNA in the absence of chemical substance (yeast gene YML100W) | level of expressed mRNA in the presence/in the absence of chemical substance (yeast gene YMR323W) | The level of expressed mRNA in the presence of chemical substance/The level of expressed mRNA in the absence of chemical substance (yeast gene YNL045W) | The level of expressed mRNA in the presence of chemical substance/The level of expressed mRNA in the absence of chemical substance (yeast gene YNL322C) | The level of expressed mRNA in the presence of chemical substance/The level of expressed mRNA in the absence of chemical substance (yeast gene YOL058W) | level of expressed mRNA in the presence/in the absence of chemical substance (yeast gene YOR002W) | The level of expressed mRNA in the presence of chemical substance/The level of expressed mRNA in the absence of chemical substance (yeast gene YOR099W) | level of expressed mRNA in the presence/in the absence of chemical substance (yeast gene YOR108W) | The level of expressed mRNA in the presence of chemical substance/The level of expressed mRNA in the absence of chemical substance (yeast gene YOR130C)
0.6: The level of expressed mRNA in the presence of chemical substance/The level of expressed mRNA in the absence of chemical substance (yeast gene YKL215C) | The level of expressed mRNA in the presence of chemical substance/The level of expressed mRNA in the absence of chemical substance (yeast gene YMR296C) | The level of expressed mRNA in the presence of chemical substance/The level of expressed mRNA in the absence of chemical substance (yeast gene YNR033W)
1.3: The level of expressed mRNA in the presence of chemical substance/The level of expressed mRNA in the absence of chemical substance (yeast gene YKL152C) | level of expressed mRNA in the presence/in the absence of chemical substance (yeast gene YLR081W) | The level of expressed mRNA in the presence of chemical substance/The level of expressed mRNA in the absence of chemical substance (yeast gene YLR180W) | level of expressed mRNA in the presence/in the absence of chemical substance (yeast gene YMR011W) | The level of expressed mRNA in the presence of chemical substance/The level of expressed mRNA in the absence of chemical substance (yeast gene YMR020W) | The level of expressed mRNA in the presence of chemical substance/The level of expressed mRNA in the absence of chemical substance (yeast gene YNL012W) | level of expressed mRNA in the presence/in the absence of chemical substance (yeast gene YPR165W)
5.3: The level of expressed mRNA in the presence of chemical substance/The level of expressed mRNA in the absence of chemical substance (yeast gene YPR167C)
8.6: The level of expressed mRNA in the presence of chemical substance/The level of expressed mRNA in the absence of chemical substance (yeast gene YNL331C)
1.5: The level of expressed mRNA in the presence of chemical substance/The level of expressed mRNA in the absence of chemical substance (yeast gene YML054C) | The level of expressed mRNA in the presence of chemical substance/The level of expressed mRNA in the absence of chemical substance (yeast gene YNL231C)
1.2: The level of expressed mRNA in the presence of chemical substance/The level of expressed mRNA in the absence of chemical substance (yeast gene YKL091C) | The level of expressed mRNA in the presence of chemical substance/The level of expressed mRNA in the absence of chemical substance (yeast gene YLR299W) | level of expressed mRNA in the presence/in the absence of chemical substance (yeast gene YPL148C)
1.0: The level of expressed mRNA in the presence of chemical substance/The level of expressed mRNA in the absence of chemical substance (yeast gene YKL035W) | The level of expressed mRNA in the presence of chemical substance/The level of expressed mRNA in the absence of chemical substance (yeast gene YKL104C) | The level of expressed mRNA in the presence of chemical substance/The level of expressed mRNA in the absence of chemical substance (yeast gene YLL058W) | level of expressed mRNA in the presence/in the absence of chemical substance (yeast gene YLR056W) | The level of expressed mRNA in the presence of chemical substance/The level of expressed mRNA in the absence of chemical substance (yeast gene YNL106C) | The level of expressed mRNA in the presence of chemical substance/The level of expressed mRNA in the absence of chemical substance (yeast gene YNR019W) | The level of expressed mRNA in the presence of chemical substance/The level of expressed mRNA in the absence of chemical substance (yeast gene YOL126C) | The level of expressed mRNA in the presence of chemical substance/The level of expressed mRNA in the absence of chemical substance (yeast gene YOL153C) | level of expressed mRNA in the presence/in the absence of chemical substance (yeast gene YOR142W) | The level of expressed mRNA in the presence of chemical substance/The level of expressed mRNA in the absence of chemical substance (yeast gene YPL017C)

— patent US8192962B2, “Processes for detecting toxic substances” (Daikin Industries, Ltd., priority 2001, dated 2012)
